According to PMC12670405, “Second-Generation AURKA-Targeting PROTACs: Structural Optimization toward in Vivo Degradation in Neuroblastoma” (Journal of Medicinal Chemistry, 2025):
Where two headings read alike, the source gives them in different places.

Legend:
[1] = target: T1, CRBN (Homo sapiens, UniProt Q96SW2); assay: CRBN binding assay (E3scan, Eurofins Discovery)
T1 construct: purchased Eurofins Discovery
Procedure: (§1) AURKA, AURKB and CRBN binding assays were performed by Eurofins Discovery using the KdELECT Kinase Assay Panel (AURKA and AURKB), or the E3scan Ligand Binding Assay Technology (CRBN). More information can be found on the Eurofins Discovery Web site.
(§2) Graphs were generated using GraphPad Prism Software (version 10.1.2) or RStudio (R-4.3.2). All dose–response curves were computed on GraphPad Prism using the Variable Slope (four parameters) equation. Absolute half-maximal degradation (DC50), growth inhibitory (GI50) and enzymatic inhibitory (IC50) concentrations, as well as inhibition constants (Ki) were derived from dose–response curves via interpolation. Statistical tests were performed on GraphPad Prism and detailed in the figure legends. Unless otherwise stated, “n” in the figure legends indicates the number of independent experiments conducted at different times.

[2] = tested on: SK-N-BE(2)-C; assay: IncuCyte live-cell imaging, antiproliferative effect; assay type: cell-based, human; settings: 72 h; for GI50: Homo sapiens, SK-N-BE(2)-C, read-out: Cell GI50 72h; for growth-inhibitory activity upon cotreatment with tariquidar (in words): NGP, SJNB-8 and SK-N-BE(2)-C, 1 μM tariquidar
From the text: Human neuroblastoma cell lines NGP, IMR-32, SJNB-8, SK-N-BE(2)-C, SJNB-1, SK-N-SH and SK-N-AS, as well as benign immortalized cell lines RPE and HEK293T were either bought commercially or obtained through research laboratories. […] Screening for mycoplasma contamination occurred routinely on the cells. Human neuroblastoma cell lines SH-SY5Y_shABCB1 & SH-SY5Y_shNTC were generated by transduction with pLKO.1-ABCB1_TRCN0000059683 shRNA (Sigma MISSION SHCLND) or pLKO.1-puro NT shRNA (Sigma MISSION SHC002) vectors respectively (Supplementary Table S6), packaged using Lenti-X293T (Clontech). Transduced cells were selected with 2 μg/mL puromycin. These cells were cultured in DMEM 4.5 g/L D-Glucose, L-Glutamine and 110 mg/L Sodium Pyruvate (Gibco, #11995065) supplemented with 10% fetal bovine serum, 1× Antibiotic-Antimycotic solution (Sigma-Aldrich, #A5955) and 1× MEM nonessential amino acids (Sigma-Aldrich, #M7145). Incubation of all cells occurred at 37 °C and 5% CO2.
Neuroblastoma cells were seeded in 384-well plates at different densities ranging from 1200 to 5000 cells/well and allowed to adhere overnight. RPE and HEK293T were seeded at 200 and 600 cells/well, respectively. Compound treatment was performed using the D300e Digital Dispenser (Tecan) in duplicate or triplicate and cell confluency was monitored over time using the IncuCyte Live-cell imaging system (Sartorius). […] Mean normalized confluences were calculated from 3 individual experiments.
(§3) All dose–response curves were computed on GraphPad Prism using the Variable Slope (four parameters) equation. Absolute half-maximal degradation (DC50), growth inhibitory (GI50) and enzymatic inhibitory (IC50) concentrations, as well as inhibition constants (Ki) were derived from dose–response curves via interpolation. Statistical tests were performed on GraphPad Prism and detailed in the figure legends. Unless otherwise stated, “n” in the figure legends indicates the number of independent experiments conducted at different times.

[3] = target: T2, NanoLuc-AURKA (Homo sapiens, UniProt O14965); assay: NanoBRET target engagement, live (intact) cells; assay type: cell-based; settings: intact HEK293T
T2 construct: Plasmids encoding full-length wild-type AURKA fused to Nano-Luc; host or cells: HEK293T
T2 sequence (O14965 1-403): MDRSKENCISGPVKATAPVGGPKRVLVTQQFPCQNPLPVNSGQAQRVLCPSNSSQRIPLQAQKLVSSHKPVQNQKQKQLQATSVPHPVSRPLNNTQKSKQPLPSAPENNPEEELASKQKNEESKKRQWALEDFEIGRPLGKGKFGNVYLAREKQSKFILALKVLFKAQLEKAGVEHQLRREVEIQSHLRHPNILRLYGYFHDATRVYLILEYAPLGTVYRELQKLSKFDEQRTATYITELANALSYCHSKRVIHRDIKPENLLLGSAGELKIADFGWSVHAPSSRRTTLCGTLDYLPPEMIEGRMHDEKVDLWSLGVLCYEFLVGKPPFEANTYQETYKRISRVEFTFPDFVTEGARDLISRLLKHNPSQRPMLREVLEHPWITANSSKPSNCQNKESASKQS
Procedure: The NanoBRET Target Engagement Assay (Promega) was performed according to the recommended instructions from the manufacturer. Plasmids encoding full-length wild-type AURKA fused to Nano-Luc via AURKA’s C-terminus (Promega, #NV1041) were transfected into HEK293T cells using FuGENE HD (Promega, #E2312). […] The plate was mixed at 900 rpm for 15 s, using an orbital shaker. For the permeabilized-mode, digitonin (Sigma-Aldrich, #D141) was additionally added at a final concentration of 50 μg/mL. Test compounds were subsequently administered in duplicate using the D300e digital dispenser (Tecan), followed by incubation for 2 h (37 °C, 5% CO2). To measure BRET, nanoglo substrate and extracellular nanoluc inhibitor (only in live-mode) (Promega #N2540) were added, and luminescence was measured using the GloMax Discover Microplate Reader (Promega) with a luminescence filter pair of 450 nm (BP filter, donor) and 600 nm (LP filter, acceptor). The NanoBRET ratio was calculated using the following formula: BRET ratio = 1000*[(acceptor signal/donor signal)with tracer – (acceptor signal/donor signal)no tracer]. Relative BRET ratios (%) were generated by normalizing to the negative DMSO control. The experiment was performed once with 2 replicate samples.
as §3

[4] = target: T3, AURKA (Homo sapiens, UniProt O14965); assay: AURKA binding assay (KINOMEscan / KdELECT, Eurofins Discovery); parameters: purchased Eurofins Discovery; settings: for binding selectivity for AURKA over AURKB: Ki AURKB vs Ki AURKA
T3 sequence (O14965 1-403): T2 sequence (O14965 1-403)
Procedure: as §1, §2

[5] = target: T4, AURKB (Homo sapiens, UniProt Q96GD4); assay: AURKB binding assay (KINOMEscan / KdELECT, Eurofins Discovery)
T4 construct: purchased Eurofins Discovery
Procedure: as §1, §2

[6] = tested on: SK-N-SH; assay: IncuCyte live-cell imaging, antiproliferative effect; assay type: cell-based; settings: Homo sapiens, 72 h, read-out: Cell GI50 72h
How it was run: (§4)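 Cells seeded in 384-well plates (neuroblastoma 1200–5000, HEK293T 600 cells/well), adhered overnight, then compound-treated in duplicate or triplicate; confluency tracked by IncuCyte live-cell imaging. Normalized confluence averaged from 3 experiments; absolute GI50 interpolated from four-parameter variable-slope curves.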

[7] = tested on: SK-N-AS; assay: as above; assay type: cell-based; settings: Homo sapiens, 72 h, read-out: Cell GI50 72h
How it was run: as §4

[8] = tested on: RPE; assay: as above; assay type: cell-based
[9] = tested on: SJNB-8; assay: as above; assay type: cell-based; settings: Homo sapiens, 72 h, read-out: Cell GI50 72h, SJNB-8
How it was run: as §4

T4 sequence (Q96GD4 whole entry): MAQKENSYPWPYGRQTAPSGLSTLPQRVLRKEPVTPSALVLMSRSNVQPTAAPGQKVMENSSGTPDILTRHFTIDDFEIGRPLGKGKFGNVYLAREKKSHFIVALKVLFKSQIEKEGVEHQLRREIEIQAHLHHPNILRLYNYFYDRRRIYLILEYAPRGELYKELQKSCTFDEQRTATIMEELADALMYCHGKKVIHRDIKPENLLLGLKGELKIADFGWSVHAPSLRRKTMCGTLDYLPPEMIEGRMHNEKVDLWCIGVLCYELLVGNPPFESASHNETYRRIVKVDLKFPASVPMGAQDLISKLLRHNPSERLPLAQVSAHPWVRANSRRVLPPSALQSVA
T1 sequence (Q96SW2 whole entry): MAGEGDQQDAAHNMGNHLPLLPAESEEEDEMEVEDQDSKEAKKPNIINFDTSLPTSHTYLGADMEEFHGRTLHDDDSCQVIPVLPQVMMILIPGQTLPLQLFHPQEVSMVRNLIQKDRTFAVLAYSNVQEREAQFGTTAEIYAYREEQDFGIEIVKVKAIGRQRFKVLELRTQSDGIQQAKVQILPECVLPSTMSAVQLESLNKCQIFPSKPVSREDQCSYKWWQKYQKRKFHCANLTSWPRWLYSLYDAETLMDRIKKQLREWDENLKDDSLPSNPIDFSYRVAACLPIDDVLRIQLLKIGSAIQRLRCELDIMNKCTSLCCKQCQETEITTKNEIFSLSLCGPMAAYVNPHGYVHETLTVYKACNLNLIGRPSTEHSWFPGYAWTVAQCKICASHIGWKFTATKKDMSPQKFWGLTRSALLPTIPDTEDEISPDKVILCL

SMILES	Ki [1]	GI50 [2]	Ki [4]	binding selectivity for AURKA over AURKB [4]	Ki [5]	GI50 [6]	GI50 [7]	growth-inhibitory activity upon cotreatment with tariquidar (in words) [2]	NanoLuc-AURKA engagement in intact cells (in words) [3]	GI50 ([8]; 72 h, read-out: Cell GI50 72h)	GI50 ([8]; 72h, read-out: GI50)	GI50 [9]
Cc1cc(Nc2ccc(F)c(CC3(C(=O)N4CCC(F)(CN5CCN(c6ccc(N7CCC(=O)NC7=O)cn6)CC5)CC4)CCN(Cc4cccc(Cl)c4F)CC3)n2)n[nH]1 [SK5527]	1.13 µM	0.477 µM	0.002 µM	more than 2000 fold	> 10 µM	0.244 µM	0.654 µM	comparable to AURKA inhibitor TAS-119	able to bind NanoLuc-AURKA in intact cells	0.46 µM	~0.5 µM	< 0.1 µM
O=C1CCC(N2C(=O)c3cccc(OCCOCCOCCOCCNC(=O)[C@]4(Cc5cccc(Nc6nccs6)n5)CC[C@@H](Oc5cccc(Cl)c5F)CC4)c3C2=O)C(=O)N1 (stereo partly drawn) [SK2188, reference compound]	0.273 µM	3.73 µM	0.002 µM	more than 2000 fold	5.61 µM	1.58 µM	3.18 µM					0.173 µM

More lines, main results first:

Ki [1]	GI50 [2]	Ki [4]	binding selectivity for AURKA over AURKB [4]	Ki [5]	GI50 [6]	GI50 [7]	SMILES	growth-inhibitory activity upon cotreatment with tariquidar (in words) [2]	NanoLuc-AURKA engagement in intact cells (in words) [3]	GI50 ([8]; 72 h, read-out: Cell GI50 72h)	GI50 ([8]; 72h, read-out: GI50)	GI50 [9]
1.21 µM							O=C1CCC(Nc2ccc(N3CCN(C4CN(C(=O)[C@]5(Cc6cccc(Nc7nccs7)n6)CC[C@@H](Oc6cccc(Cl)c6F)CC5)C4)CC3)c(F)c2)C(=O)N1 (stereo partly drawn) [PROTAC 18]					
4.3 µM		0.001 µM	more than 2000 fold	2.39 µM			O=C1CCN(c2ccc(N3CCN(CC4CCN(C(=O)[C@]5(Cc6cccc(Nc7nccs7)n6)CC[C@@H](Oc6cccc(Cl)c6F)CC5)CC4)CC3)nc2)C(=O)N1 [PROTAC 24]					
4.06 µM	1.11 µM	0.001 µM	more than 2000 fold	7.64 µM	0.43 µM	0.994 µM	Cc1cc(Nc2ccc(F)c(CC3(C(=O)N4CCC(CN5CCN(c6ccc(N7CCC(=O)NC7=O)cn6)CC5)CC4)CCN(Cc4cccc(Cl)c4F)CC3)n2)n[nH]1 [SK4454]	comparable to AURKA inhibitor TAS-119	able to bind NanoLuc-AURKA in intact cells	0.221 µM		< 0.1 µM
